Test [1] concerns the target Human immunodeficiency virus type 1 protease (Human immunodeficiency virus 1, UniProt Q72874). As to the kind of experiment: Inhibition of RNA-dependent DNA polymerase activity against wild-type HIV-1 RT at a concentration of 100 uM; No inhibition.
Test [2] addresses T1, Human immunodeficiency virus type 1 reverse transcriptase (Human immunodeficiency virus 1, UniProt Q72547). As to the kind of experiment: Inhibitory activity against reverse transcriptase of HIV; Inactive.
Test [3] addresses T1, Human immunodeficiency virus type 1 reverse transcriptase. As to the kind of experiment: Inhibitory activity against reverse transcriptase of HIV-1.

In general, Ki refers to the dissociation constant of the complex between target and ligand, obtained from inhibition or displacement. In the case of `COc1ccc(OC)c2c(O)c(O)cnc12`, the Ki entry in test [1] was “Not Active”. With `COc1cnc2c(OC)ccc(OC)c2c1O`, the Ki result in test [2] is listed as “Not Active”. Turning to `Oc1cnc2c(O)ccc(O)c2c1O`, in test [3], affinity was put at a Ki of 490 nM.

These data come from ChEMBL document CHEMBL1132397, “Synthesis of 5,8-dimethoxy-3-hydroxy-4-quinolone, a reported inhibitor of HIV RT, and evidence the original proposed structure was incorrect” (Bioorg Med Chem Lett, 1999).
